Source: ChEMBL document CHEMBL6087472, “Development and Discovery of a Selective Degrader of Casein Kinases 1 δ/ε” (J Med Chem, 2025)
The source made the active and inactive calls. The rule behind the calls is not given here.

Assays:
[1] = target: T1, Protein cereblon/Casein kinase I isoform delta (Homo sapiens, UniProt P48730+Q96SW2); test: PROTAC activity at CRBN/full length N-terminal Nano-luc fused CK1 delta (unknown origin) transfected in HEK293T cells incubated for 2 hrs followed by substrate addition by NanoBRET target engagement assay; type: cell-based
Target sequence in this assay (P48730 whole entry, the tested form may be a part, canonical isoform): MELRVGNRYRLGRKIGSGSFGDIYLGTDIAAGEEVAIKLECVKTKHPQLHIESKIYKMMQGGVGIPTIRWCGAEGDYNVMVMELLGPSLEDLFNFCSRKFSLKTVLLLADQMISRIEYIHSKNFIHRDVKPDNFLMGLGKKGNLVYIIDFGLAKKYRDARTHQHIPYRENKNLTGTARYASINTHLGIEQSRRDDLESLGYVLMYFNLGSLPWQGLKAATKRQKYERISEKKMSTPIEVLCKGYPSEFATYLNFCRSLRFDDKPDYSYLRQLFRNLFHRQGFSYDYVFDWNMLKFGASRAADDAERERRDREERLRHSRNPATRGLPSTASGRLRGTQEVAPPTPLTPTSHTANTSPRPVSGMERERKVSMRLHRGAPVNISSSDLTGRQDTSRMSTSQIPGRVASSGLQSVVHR
Target sequence in this assay (Q96SW2 whole entry, the tested form may be a part, canonical isoform): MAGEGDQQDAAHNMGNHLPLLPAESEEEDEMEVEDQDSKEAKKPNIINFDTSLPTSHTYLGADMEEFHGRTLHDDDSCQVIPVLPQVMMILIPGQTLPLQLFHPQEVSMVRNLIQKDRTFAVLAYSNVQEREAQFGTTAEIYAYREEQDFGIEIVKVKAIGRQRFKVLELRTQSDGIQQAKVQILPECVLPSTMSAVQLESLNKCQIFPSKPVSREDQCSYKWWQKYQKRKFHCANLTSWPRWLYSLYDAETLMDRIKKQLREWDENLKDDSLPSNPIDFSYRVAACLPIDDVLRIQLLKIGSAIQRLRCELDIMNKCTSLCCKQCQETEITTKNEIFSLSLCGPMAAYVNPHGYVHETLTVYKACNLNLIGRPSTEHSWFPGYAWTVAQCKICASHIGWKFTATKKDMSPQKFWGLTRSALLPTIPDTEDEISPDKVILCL

[2] = target: T1, Protein cereblon/Casein kinase I isoform delta; test: PROTAC activity at CRBN/Hibit-fused CK1 delta in human MV4-11 cells assessed as degradation of CK1-delta incubated for 6 hrs by Nano-Glo HiBiT assay relative to control; type: cell-based
Target sequence in this assay (P48730 whole entry, looked up, the tested form may be a part, canonical isoform): as the sequence (P48730 whole entry, the tested form may be a part, canonical isoform) above
Target sequence in this assay (Q96SW2 whole entry, looked up, the tested form may be a part, canonical isoform): as the sequence (Q96SW2 whole entry, the tested form may be a part, canonical isoform) above

[3] = target: Cereblon/Casein kinase I alpha (Homo sapiens) (UniProt P48729+Q96SW2); test: PROTAC activity at CRBN/Hibit-fused CK1 alpha in human MV4-11 cells assessed as degradation of CK1-alpha incubated for 6 hrs by Nano-Glo HiBiT assay relative to control; type: cell-based
Chain of Cereblon/Casein kinase I alpha (Homo sapiens) (P48729 2-337 limits assumed): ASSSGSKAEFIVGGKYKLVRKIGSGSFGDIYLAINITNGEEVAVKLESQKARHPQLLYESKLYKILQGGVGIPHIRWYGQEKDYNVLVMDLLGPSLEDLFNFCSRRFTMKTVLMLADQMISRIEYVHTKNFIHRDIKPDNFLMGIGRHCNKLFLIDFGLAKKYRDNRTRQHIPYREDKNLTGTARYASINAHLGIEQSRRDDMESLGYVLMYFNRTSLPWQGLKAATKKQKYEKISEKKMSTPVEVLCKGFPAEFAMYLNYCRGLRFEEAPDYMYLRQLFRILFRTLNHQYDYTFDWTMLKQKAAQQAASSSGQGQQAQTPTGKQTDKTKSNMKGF
Chain of Cereblon/Casein kinase I alpha (Homo sapiens) (Q96SW2 whole entry partner, the tested form may be a part, canonical isoform): as the sequence (Q96SW2 whole entry, the tested form may be a part, canonical isoform) above

[4] = target: T1, Protein cereblon/Casein kinase I isoform delta; test: PROTAC activity at CRBN/Hibit-fused CK1 delta in human MV4-11 cells assessed as degradation of CK1-delta at 10 nM incubated for 6 hrs by Nano-Glo HiBiT assay; type: cell-based
Target sequence in this assay (P48730 whole entry, looked up, the tested form may be a part, canonical isoform): as the sequence (P48730 whole entry, the tested form may be a part, canonical isoform) above
Target sequence in this assay (Q96SW2 whole entry, looked up, the tested form may be a part, canonical isoform): as the sequence (Q96SW2 whole entry, the tested form may be a part, canonical isoform) above

[5] = target: T2, von Hippel-Lindau disease tumor suppressor/Casein kinase I isoform delta (Homo sapiens, UniProt P48730+P40337); test: PROTAC activity at VHL/full length N-terminal Nano-luc fused CK1 delta (unknown origin) transfected in HEK293T cells incubated for 2 hrs followed by substrate addition by NanoBRET target engagement assay; type: cell-based
Target sequence in this assay (P40337 whole entry, looked up, the tested form may be a part, canonical isoform): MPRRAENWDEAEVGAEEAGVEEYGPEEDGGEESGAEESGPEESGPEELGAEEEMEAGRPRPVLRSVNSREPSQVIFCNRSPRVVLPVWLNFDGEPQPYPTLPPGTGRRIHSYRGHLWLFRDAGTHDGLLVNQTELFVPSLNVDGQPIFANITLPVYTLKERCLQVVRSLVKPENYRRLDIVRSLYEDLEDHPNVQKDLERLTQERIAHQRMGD
Target sequence in this assay (P48730 whole entry, looked up, the tested form may be a part, canonical isoform): as the sequence (P48730 whole entry, the tested form may be a part, canonical isoform) above

[6] = target: T2, von Hippel-Lindau disease tumor suppressor/Casein kinase I isoform delta; test: PROTAC activity at VHL/Hibit-fused CK1 delta in human MV4-11 cells assessed as degradation of CK1-delta incubated for 6 hrs by Nano-Glo HiBiT assay relative to control; type: cell-based
Target sequence in this assay (P40337 whole entry, looked up, the tested form may be a part, canonical isoform): as the sequence (P40337 whole entry, looked up, the tested form may be a part, canonical isoform) above
Target sequence in this assay (P48730 whole entry, looked up, the tested form may be a part, canonical isoform): as the sequence (P48730 whole entry, the tested form may be a part, canonical isoform) above

[7] = target: T3, von Hippel-Lindau disease tumor suppressor/Casein kinase I isoform alpha (Homo sapiens) (UniProt P48729+P40337); test: PROTAC activity at VHL/Hibit-fused CK1 alpha in human MV4-11 cells assessed as degradation of CK1-alpha incubated for 6 hrs by Nano-Glo HiBiT assay relative to control; type: cell-based
T3 sequence (P40337 whole entry, looked up, the tested form may be a part, canonical isoform): as the sequence (P40337 whole entry, looked up, the tested form may be a part, canonical isoform) above
T3 sequence (P48729 whole entry, looked up, the tested form may be a part, canonical isoform): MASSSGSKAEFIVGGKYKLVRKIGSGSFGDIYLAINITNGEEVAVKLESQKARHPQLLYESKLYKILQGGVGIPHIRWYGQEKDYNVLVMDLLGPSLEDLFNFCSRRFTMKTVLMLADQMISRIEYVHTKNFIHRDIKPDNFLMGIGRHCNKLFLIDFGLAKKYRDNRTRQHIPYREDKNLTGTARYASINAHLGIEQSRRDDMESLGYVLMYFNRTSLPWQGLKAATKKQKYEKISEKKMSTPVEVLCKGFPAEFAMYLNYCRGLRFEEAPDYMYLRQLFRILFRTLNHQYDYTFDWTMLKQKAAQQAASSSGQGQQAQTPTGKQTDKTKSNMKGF

MV4-11 [8] = test: Cytotoxicity in human MV4-11 cells at 10 uM measured after 72 hrs by alamar blue assay; type: functional, cell-based
[9] = target: T2, von Hippel-Lindau disease tumor suppressor/Casein kinase I isoform delta; test: PROTAC activity at VHL/CK1 delta in HEK293 cells assessed as induction of degradation of CK1 delta at upto 20 uM pretreated with LGK974 followed by compound addition and measured after 6 hrs by Western blot analysis; type: cell-based
Target sequence in this assay (P40337 whole entry, looked up, the tested form may be a part, canonical isoform): as the sequence (P40337 whole entry, looked up, the tested form may be a part, canonical isoform) above
Target sequence in this assay (P48730 whole entry, looked up, the tested form may be a part, canonical isoform): as the sequence (P48730 whole entry, the tested form may be a part, canonical isoform) above

[10] = target: T4, von Hippel-Lindau disease tumor suppressor/Casein kinase I isoform epsilon (Homo sapiens) (UniProt P49674+P40337); test: PROTAC activity at VHL/CK1 epsilon in HEK293 cells assessed as induction of degradation of CK1 epsilon at upto 20 uM pretreated with LGK974 followed by compound addition and measured after 6 hrs by Western blot analysis; type: cell-based
T4 sequence (P40337 whole entry, looked up, canonical isoform): as the sequence (P40337 whole entry, looked up, the tested form may be a part, canonical isoform) above
T4 sequence (P49674 whole entry, looked up, canonical isoform): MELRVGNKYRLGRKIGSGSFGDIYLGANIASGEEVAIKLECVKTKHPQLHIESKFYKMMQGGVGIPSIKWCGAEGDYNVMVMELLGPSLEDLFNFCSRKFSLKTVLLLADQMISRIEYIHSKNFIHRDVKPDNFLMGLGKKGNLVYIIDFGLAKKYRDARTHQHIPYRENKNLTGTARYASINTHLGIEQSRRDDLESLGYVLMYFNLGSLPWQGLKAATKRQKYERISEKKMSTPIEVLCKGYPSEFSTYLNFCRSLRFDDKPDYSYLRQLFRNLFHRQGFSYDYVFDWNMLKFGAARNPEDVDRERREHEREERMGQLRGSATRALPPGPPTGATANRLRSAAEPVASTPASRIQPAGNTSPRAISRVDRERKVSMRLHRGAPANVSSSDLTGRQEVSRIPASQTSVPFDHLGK

[11] = target: T4, von Hippel-Lindau disease tumor suppressor/Casein kinase I isoform epsilon (Homo sapiens); test: PROTAC activity at VHL/CK1 epsilon in HEK293 cells assessed as dephosphorylation of DVL3 at high concentration pretreated with LGK974 followed by compound addition and measured after 6 hrs by Western blot analysis; type: cell-based
[12] = target: T2, von Hippel-Lindau disease tumor suppressor/Casein kinase I isoform delta; test: PROTAC activity at VHL/CK1 delta in HEK293 cells assessed as dephosphorylation of DVL3 at high concentration pretreated with LGK974 followed by compound addition and measured after 6 hrs by Western blot analysis; type: cell-based
Target sequence in this assay (P40337 whole entry, looked up, the tested form may be a part, canonical isoform): as the sequence (P40337 whole entry, looked up, the tested form may be a part, canonical isoform) above
Target sequence in this assay (P48730 whole entry, looked up, the tested form may be a part, canonical isoform): as the sequence (P48730 whole entry, the tested form may be a part, canonical isoform) above

[13] = target: T2, von Hippel-Lindau disease tumor suppressor/Casein kinase I isoform delta; test: PROTAC activity at VHL/CK1 delta in HEK293 cells assessed as induction of degradation of CK1 delta by Western blot analysis; type: cell-based
[14] = target: T4, von Hippel-Lindau disease tumor suppressor/Casein kinase I isoform epsilon (Homo sapiens); test: PROTAC activity at VHL/CK1 epsilon in HEK293 cells assessed as induction of degradation of CK1 epsilon at 0.01 to 30 uM by Western blot analysis; type: cell-based; conditions: dose 0.01-30 µM
[15] = target: T3, von Hippel-Lindau disease tumor suppressor/Casein kinase I isoform alpha (Homo sapiens); test: PROTAC activity at VHL/CK1 alpha in HEK293 cells assessed as induction of degradation of CK1 alpha at >10 uM by Western blot analysis; type: cell-based
[16] = target: T2, von Hippel-Lindau disease tumor suppressor/Casein kinase I isoform delta; test: PROTAC activity at VHL/Hibit-fused CK1 delta in human MV4-11 cells assessed as degradation of CK1-delta incubated for 6 hrs by Nano-Glo HiBiT assay; type: cell-based
[17] = target: T3, von Hippel-Lindau disease tumor suppressor/Casein kinase I isoform alpha (Homo sapiens); test: PROTAC activity at VHL/CK1 alpha in HEK293 cells assessed as induction of degradation of CK1 alpha by measuring maximum efficacy at 5 to 10 uM measured after 6 hrs by Western blot analysis relative to control; type: cell-based; conditions: dose 5-10 µM
[18] = target: T2, von Hippel-Lindau disease tumor suppressor/Casein kinase I isoform delta; test: PROTAC activity at VHL/CK1 delta in HEK293 cells assessed as induction of degradation of CK1 delta by measuring maximum efficacy at 5 to 10 uM measured after 6 hrs by Western blot analysis relative to control; type: cell-based; conditions: dose 5-10 µM
Target sequence in this assay (P40337 whole entry, looked up, the tested form may be a part, canonical isoform): as the sequence (P40337 whole entry, looked up, the tested form may be a part, canonical isoform) above
Target sequence in this assay (P48730 whole entry, looked up, the tested form may be a part, canonical isoform): as the sequence (P48730 whole entry, the tested form may be a part, canonical isoform) above

[19] = target: T4, von Hippel-Lindau disease tumor suppressor/Casein kinase I isoform epsilon (Homo sapiens); test: PROTAC activity at VHL/CK1 epsilon in HEK293 cells assessed as induction of degradation of CK1 epsilon by measuring maximum efficacy at 5 to 10 uM measured after 6 hrs by Western blot analysis relative to control; type: cell-based; conditions: dose 5-10 µM
[20] = target: Casein kinase I isoform delta (Homo sapiens) (UniProt P48730); test: Inhibition of CK1 delta in HEK293 cells at 5 to 10 uM measured after 6 hrs by Western blot analysis; type: cell-based; conditions: dose 5-10 µM
[21] = target: T5, Casein kinase I isoform epsilon (Homo sapiens, UniProt P49674); test: Inhibition of CK1 epsilon in HEK293 cells at 5 to 10 uM measured after 6 hrs by Western blot analysis; type: cell-based; conditions: dose 5-10 µM
[22] = target: T5, Casein kinase I isoform epsilon; test: Inhibition of CK1 epsilon (unknown origin)
[23] = Bioavailability in mouse; type: ADME, organism-based; conditions: in vivo
MV4-11 [24] = test: Cytotoxicity in human MV4-11 cells at <5 uM measured after 60 hrs by alamar blue assay; type: functional, cell-based

EC50 [1] [nM]	Emax [2] [%]	Emax [3] [%]	Emax [5] [%]	Emax [6] [%]	Emax [7] [%]	SMILES	also measured
9.2	14.4	< 10	–	–	–	O=C1CCC(N2C(=O)c3cccc(NCc4ccc(CC(=O)N5CCC(F)(Cn6cnc(-c7ccc(F)cn7)c6-c6ccnc7[nH]ccc67)CC5)cc4)c3C2=O)C(=O)N1 (stereo unspecified)	–
1.5	15	–	–	–	–	O=C1CCC(N2C(=O)c3cccc(OCCCCCCN4CCC(F)(Cn5cnc(-c6ccc(F)cn6)c5-c5ccnc6[nH]ccc56)CC4)c3C2=O)C(=O)N1 (stereo unspecified)	inhibition [20]: Active; inhibition [21]: Active
–	–	–	0.5	19.1	< 10	Cc1ncsc1-c1ccc(CNC(=O)[C@@H]2C[C@@H](O)CN2C(=O)[C@@H](NC(=O)Cc2ccc(CNC(=O)CN3CCC(F)(Cn4cnc(-c5ccc(F)cn5)c4-c4ccnc5[nH]ccc45)CC3)cc2)C(C)(C)C)cc1	–
4.3	35	< 10	–	–	–	O=C1CCC(N2C(=O)c3cccc(NCCCCCC(=O)N4CCC(F)(Cn5cnc(-c6ccc(F)cn6)c5-c5ccnc6[nH]ccc56)CC4)c3C2=O)C(=O)N1 (stereo unspecified)	Activity [4]: Active
–	–	–	4.3	35	35.9	Cc1ncsc1-c1ccc(CNC(=O)[C@@H]2C[C@@H](O)CN2C(=O)[C@@H](NC(=O)CCOCCOCCOCCN2CCC(F)(Cn3cnc(-c4ccc(F)cn4)c3-c3ccnc4[nH]ccc34)CC2)C(C)(C)C)cc1	Activity (MV4-11 [24]): Active
9.3	36.4	25	–	–	–	O=C(CCOCCOCCN1CCC(F)(Cn2cnc(-c3ccc(F)cn3)c2-c2ccnc3[nH]ccc23)CC1)NCCNc1cccc2c1C(=O)N(C1CCC(=O)NC1=O)C2=O (stereo unspecified)	Activity [4]: Active
–	–	–	6.4	< 10	< 10	Cc1ncsc1-c1ccc(CNC(=O)[C@@H]2C[C@@H](O)CN2C(=O)[C@@H](NC(=O)CC2CN(C(=O)CCOCCOCCOCCN3CCC(F)(Cn4cnc(-c5ccc(F)cn5)c4-c4ccnc5[nH]ccc45)CC3)C2)C(C)(C)C)cc1	–
–	–	–	2	29.1	< 10	Cc1ncsc1-c1ccc(CNC(=O)[C@@H]2C[C@@H](O)CN2C(=O)[C@@H](NC(=O)CC2CCN(C(=O)CN3CCC(F)(Cn4cnc(-c5ccc(F)cn5)c4-c4ccnc5[nH]ccc45)CC3)CC2)C(C)(C)C)cc1	–
–	–	–	6.3	< 10	< 10	Cc1ncsc1-c1ccc(CNC(=O)[C@@H]2C[C@@H](O)CN2C(=O)[C@@H](NC(=O)CC2CN(C(=O)CCOCCOCCN3CCC(F)(Cn4cnc(-c5ccc(F)cn5)c4-c4ccnc5[nH]ccc45)CC3)C2)C(C)(C)C)cc1	–

Continued, compound first:

SMILES	EC50 [1] [nM]	Emax [2] [%]	Emax [3] [%]	Emax [5] [%]	Emax [6] [%]	Emax [7] [%]	also measured
O=C1CCC(N2C(=O)c3cccc(NCCOCCOCCOCCC(=O)N4CCC(F)(Cn5cnc(-c6ccc(F)cn6)c5-c5ccnc6[nH]ccc56)CC4)c3C2=O)C(=O)N1 (stereo unspecified)	467	34.4	16.1	–	–	–	–
O=C(CCOCCOCCOCCOCCN1CCC(F)(Cn2cnc(-c3ccc(F)cn3)c2-c2ccnc3[nH]ccc23)CC1)NCCNc1cccc2c1C(=O)N(C1CCC(=O)NC1=O)C2=O (stereo unspecified)	11.2	40.2	11.3	–	–	–	Activity [4]: Active
O=C(CCOCCOCCOCCN1CCC(F)(Cn2cnc(-c3ccc(F)cn3)c2-c2ccnc3[nH]ccc23)CC1)NCCNc1cccc2c1C(=O)N(C1CCC(=O)NC1=O)C2=O (stereo unspecified)	7.7	36	20.2	–	–	–	Activity [4]: Active
Cc1ncsc1-c1ccc(CNC(=O)[C@@H]2C[C@H](O)CN2C(=O)[C@@H](NC(=O)CCCCCCC(=O)N2CCC(F)(Cn3cnc(-c4ccc(F)cn4)c3-c3ccnc4[nH]ccc34)CC2)C(C)(C)C)cc1	–	–	–	2.4	< 10	< 10	Activity (MV4-11 [8]): Active; Compound Showed Milder Cytotoxic Effect; Activity [9]: inactive; Activity [10]: inactive; Activity [11]: Active; Activity [12]: Active; DC50 [13]: 200 nM; Activity [14]: Weak_effect; Activity [15]: Weak_effect
Cc1ncsc1-c1ccc(CNC(=O)[C@@H]2C[C@@H](O)CN2C(=O)[C@@H](NC(=O)CC2CCN(C(=O)CCOCCOCCOCCN3CCC(F)(Cn4cnc(-c5ccc(F)cn5)c4-c4ccnc5[nH]ccc45)CC3)CC2)C(C)(C)C)cc1	–	–	–	3.2	< 10	< 10	–
Cc1ncsc1-c1ccc(CNC(=O)[C@@H]2C[C@@H](O)CN2C(=O)[C@@H](NC(=O)CCOCCOCCN2CCC(F)(Cn3cnc(-c4ccc(F)cn4)c3-c3ccnc4[nH]ccc34)CC2)C(C)(C)C)cc1	–	–	–	1.8	50.8	17.3	DC50 [16]: 9270 nM; Emax [17]: > 50%; Emax [18]: > 50%; Emax [19]: > 50%
O=C(COc1cccc2c1C(=O)N(C1CCC(=O)NC1=O)C2=O)NCCCCCC(=O)N1CCC(F)(Cn2cnc(-c3ccc(F)cn3)c2-c2ccnc3[nH]ccc23)CC1 (stereo unspecified)	9.3	18.2	< 10	–	–	–	–
CN1CCC(F)(Cn2cnc(-c3ccc(F)cn3)c2-c2ccnc3[nH]ccc23)CC1	–	–	–	–	–	–	IC50 [22]: 27.7 nM; bioavailability [23]: 0.57%; Activity (MV4-11 [24]): Active
Cc1ncsc1-c1ccc(CNC(=O)[C@@H]2C[C@@H](O)CN2C(=O)[C@@H](NC(=O)CC2CN(C(=O)CN3CCC(F)(Cn4cnc(-c5ccc(F)cn5)c4-c4ccnc5[nH]ccc45)CC3)C2)C(C)(C)C)cc1	–	–	–	2.4	21.7	< 10	–
Cc1ncsc1-c1ccc(CNC(=O)[C@@H]2C[C@@H](O)CN2C(=O)[C@@H](NC(=O)CCOCCOCCOCCOCCN2CCC(F)(Cn3cnc(-c4ccc(F)cn4)c3-c3ccnc4[nH]ccc34)CC2)C(C)(C)C)cc1	–	–	–	2.8	< 10	< 10	–
O=C(COc1cccc2c1C(=O)N(C1CCC(=O)NC1=O)C2=O)NCCOCCOCCOCCC(=O)N1CCC(F)(Cn2cnc(-c3ccc(F)cn3)c2-c2ccnc3[nH]ccc23)CC1 (stereo unspecified)	16	< 10	12.6	–	–	–	–
O=C(COc1cccc2c1C(=O)N(C1CCC(=O)NC1=O)C2=O)NCc1ccc(CC(=O)N2CCC(F)(Cn3cnc(-c4ccc(F)cn4)c3-c3ccnc4[nH]ccc34)CC2)cc1 (stereo unspecified)	4.6	14.8	19.7	–	–	–	–
